How the values were obtained:
[1] = test system: ER stressed SCG neurons; test: Survival of tunicamycin-treated (ER stressed) SCG sympathetic neurons after microinjection; assay type: cell-based, mice; details: tunicamycin 2 μM; for survived neurons as % compared to neurons grown in the presence of NGF: microinjected into cytoplasm, CDNF (400); for rescue of ER stressed SCG neurons (result in words): protein or peptide microinjected into the cytoplasm, living fluorescent neurons counted after 3 days
Experimental: Non-neuronal cells were removed by extensive preplating. Almost pure neurons were cultured in polyornithine/laminin (Sigma)-coated 35-mm plastic dishes in the small-size standard microislands in the Neurobasal medium and B27 supplement (Invitrogen/Gibco) in the presence of 30 ng/ml mouse nerve growth factor (NGF) (Promega) for 5-6 days. NGF was deprived by extensive washing and addition of the function-blocking anti-NGF antibodies (Roche). The neurons were pressure-microinjected with special neuronal microinjection equipment (Hellman et al., 2011; Hamner et al., 2001; Lindholm et al., 2002; Sun et al., 2001; Yu et al., 2003)(Sun et al., 2001; Sun et al., 2003). For the survival assay, all neurons on the microislands were counted in the beginning (initial number) and the end (three days) of the experiment and expressed as % of initial.
Microinjection of the sympathetic neurons was performed as described earlier (Yu, L. Y., Jokitalo, E., Sun, Y. F., Mehlen, P., Lindholm, D., Saarma, M., and Arumae, U. (2003) J Cell Biol. 163, 987-997). Plasmids for CDNF have been described earlier. Briefly, newborn mouse SCG neurons were grown with NGF (Promega) for 5-6 days then the nuclei were microinjected with the expression plasmids for full-length (FL)-CDNF and C-CDNF together with a reporter plasmid for enhanced green fluorescent protein (EGFP), using vector concentration of 10 ng/ul in each experiment. […] For protein microinjection, recombinant full length (FL)-CDNF, C-CDNF proteins in PBS at 200 ng/ul were microinjected directly into the cytoplasm together with fluorescent reporter Dextran Texas Red (MW 70000 Da) (Invitrogen, Molecular Probes) that facilitates identification of the successfully injected neurons. Next day tunicamycin (2 μM) was added, and after 3 days the living fluorescent neurons were counted. Living fluorescent (EGFP-expressing or Dextran Texas Red-containing) neurons were “blindly” counted three days later and expressed as percent of initial living fluorescent neurons counted 2-3 hours after microinjection. The experiments with plasmids were repeated on independent cultures 5 times for plasmid experiment, whereas four independent protein injection experiments were performed. On average, 50-80 neurons were successfully injected per experimental group. The results were expressed as the mean±the SEM. Data of each experimental group was compared with control plasmid PCR3.1 (vector) or PBS (in the protein injection experiments) by one-way ANOVA and post hoc Dunnett's t test. The null hypothesis was rejected at p<0.05.

[2] = test system: dopamine neurons; test: Survival of TH-positive dopamine neurons in dissociated midbrain floor cultures; assay type: cell-based, mouse; details: 5 days
Experimental: To study the dopamine neurons (Yu et al., 2008; Yu and Arumae, 2008), the midbrain floors were dissected from the ventral mesencephali of 13.5-d-old NMRI strain mouse embryos. Tissues were incubated with 0.5% trypsin (ICN Biomedical), then mechanically dissociated using a large fire-polished Pasteur pipette. The neurons were grown on the poly-L-ornithine-coated (Sigma) 96-well culture plates in DMEM/F12 medium (Invitrogen) containing N2 supplement (Invitrogen) in the presence or absence of GDNF (100 ng/ml) or with CDNF, MANF, C-CDNF and C-MANF polypeptides at different concentrations for five days. Same amount of the neurons were plated to each well at the beginning of the experiments. The cultures without added neurotrophic factors served as the negative control. As the midbrain cultures contain several neuronal types, the cultures were fixed and immunostained with the antibodies to tyrosine hydroxylase (TH) (Millipore), a specific marker for the dopaminergic neurons. Images of each well were scanned by CellInsight™ and immunopositive neurons were counted by CellProfiler and CellProfiler analyst software. Data are expressed as a percentage of GDNF-maintained TH-positive neurons. All experiments were repeated at least three times on the independent cultures. The results were expressed as the mean the SEM and were tested for the significance by either one-way ANOVA and Tukey's post hoc test or by two-tailed Student's t-test. The null hypothesis was rejected at P≤0.05.

[3] = Table 1B (FIG. 16), exp1, counted after 3 days
[4] = Table 1B (FIG. 16), exp2, counted after 3 days
[5] = Table 1B (FIG. 16), exp3, counted after 3 days
[6] = Table 3B (FIG. 17), AVG, 100 ng/ml

Molecule | survived neurons as % compared to neurons grown in the presence of NGF [1, 3] [% NGF] | survived neurons as % compared to neurons grown in the presence of NGF [1, 4] [% NGF] | survived neurons as % compared to neurons grown in the presence of NGF [1, 5] [% NGF] | rescue of ER stressed SCG neurons (result in words) [1] | survived neurons as % compared to neurons grown in the presence of GDNF ([2]; Table 3B (FIG. 17), AVG, 1 ng/ml) [% GDNF] | survived neurons as % compared to neurons grown in the presence of GDNF ([2]; Table 3B (FIG. 17), AVG, 10 ng/ml) [% GDNF] | survived neurons as % compared to neurons grown in the presence of GDNF [2, 6] [% GDNF] | survived neurons as % compared to neurons grown in the presence of GDNF ([2]; Table 3B (FIG. 17), AVG, 1000 ng/ml) [% GDNF] | protection of dopaminergic neurons in culture (result in words) ([2]; added to the culture medium, TH-positive neurons counted) | survived neurons as % compared to neurons grown in the presence of NGF ([1]; Table 1A (FIG. 14), AVG of exp1-2) [% NGF] | survived neurons as % compared to neurons grown in the presence of NGF ([1]; Table 1A (FIG. 14), exp1, counted after 3 days) [% NGF] | survived neurons as % compared to neurons grown in the presence of NGF ([1]; Table 1A (FIG. 14), exp2, counted after 3 days) [% NGF] | rescue of ER stressed SCG sympathetic neurons (result in words) ([1]; expressed from microinjected plasmids, living fluorescent neurons counted after three days) | survived neurons as % compared to neurons grown in the presence of GDNF ([2]; Table 3A (FIG. 15), AVG, 100 ng/ml) [% GDNF] | survived neurons as % compared to neurons grown in the presence of GDNF ([2]; Table 3A (FIG. 15), exp1, 100 ng/ml) [% GDNF] | survived neurons as % compared to neurons grown in the presence of GDNF ([2]; Table 3A (FIG. 15), exp2, 100 ng/ml) [% GDNF] | survived neurons as % compared to neurons grown in the presence of GDNF ([2]; Table 3A (FIG. 15), exp3, 100 ng/ml) [% GDNF]
RVAELKQILHSWGEECRACAEKTDYVNLIQELAPKYA (listed as Homo sapiens) [pep8] | 77.94 | 65.57 | 73.91 | rescue | 64.02 | 75.69 | 85.95 | 81.43 | best protective effect |  |  |  |  |  |  |  | 
cerebral dopamine neurotrophic factor [CDNF] | 86.00 | 71.23 | 83.33 | rescue |  |  |  |  |  | 88.04 | 85.71 | 90.36 | rescue |  |  |  | 
glial cell line-derived neurotrophic factor (protein, UniProt P39905 78-211, looked up, Positive control neurotrophic factor, 100 ng/ml) Glial cell line-derived …: SPDKQMAVLPRRERNRQAAAANPENSRGKGRRGQRGKNRGCVLTAIHLNVTDLGLGYETKEELIFRYCSGSCDAAETTYDKILKNLSRNRRLVSDKVGQACCRPIAFDDDLSFLDDNLVYHILRKHSAKRCGCI |  |  |  |  |  |  | 100 |  |  |  |  |  |  | 100 | 100 | 100 | 100

— patent US12479895B2, “C-terminal CDNF and MANF fragments, pharmaceutical compositions comprising same and uses thereof” (MyNeuroCure Oy, priority 2018, dated 2025)
